Results as given in ChEMBL document CHEMBL1201862, “PubChem BioAssay data set” (2004).
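Growth conditions: 96-well plates. Treatment: test compound, 48 hours, 5 concentrations. Analysis: linear interpolation between bracketing concentrations; unreached endpoints set to highest concentration. GI50: concentration for 50% inhibition of growth.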 Active and inactive are the calls of the source. No stated cut-off is given here; in the data, active = GI50 up to about 1.1 µM and inactive = higher.

Legend:
Experiment in all cases: growth of human tumour cells (NCI), 48 h
786-0 = system: 786-0
EKVX = system: EKVX
HCC 2998 = system: HCC 2998
HOP-62 = system: HOP-62
IGROV-1 = system: IGROV-1
M14 = system: M14
MDA-MB-231 = system: MDA-MB-231
MDA-MB-435 = system: MDA-MB-435
NCI-H460 = system: NCI-H460
NCI/ADR-RES = system: NCI/ADR-RES
OVCAR-3 = system: OVCAR-3
OVCAR-4 = system: OVCAR-4
OVCAR-5 = system: OVCAR-5
PC-3 = system: PC-3
RPMI-8226 = system: RPMI-8226
SF-268 = system: SF-268
SF-539 = system: SF-539
SNB-19 = system: SNB-19
SNB-75 = system: SNB-75
UO-31 = system: UO-31

Measured: GI50

Cc1ccc(S(=O)(=O)C2=c3ncccc3=C3C(=O)c4ccccc4C(=O)C32)cc1 (stereo not given)
inactive: 786-0 28.4 µM | EKVX 69 µM | HCC 2998 > 10 µM | HOP-62 4.71 µM | IGROV-1 13.9 µM | M14 > 100 µM | MDA-MB-231 29.6 µM | MDA-MB-435 > 100 µM | NCI-H460 7.11 µM | NCI/ADR-RES 49.3 µM | OVCAR-3 55.8 µM | OVCAR-4 15.8 µM | OVCAR-5 > 10 µM | PC-3 61.4 µM | RPMI-8226 > 100 µM | SF-268 46.7 µM | SF-539 2.75 µM | SNB-19 48.9 µM | SNB-75 52.6 µM | UO-31 > 72.1 µM

COC(=O)C1(C)OC(C)=NC1(C(=O)OC)C(=O)OC (stereo not given)
inactive: 786-0 > 100 µM | EKVX > 100 µM | HCC 2998 > 100 µM | HOP-62 > 100 µM | IGROV-1 > 100 µM | M14 > 100 µM | MDA-MB-231 > 100 µM | MDA-MB-435 > 100 µM | NCI-H460 > 100 µM | NCI/ADR-RES > 100 µM | OVCAR-3 > 100 µM | OVCAR-4 > 100 µM | OVCAR-5 > 100 µM | PC-3 > 100 µM | RPMI-8226 > 100 µM | SF-268 > 100 µM | SF-539 > 100 µM | SNB-19 > 100 µM | SNB-75 > 100 µM | UO-31 > 100 µM

O=C1C(S(=O)(=O)c2ccccc2)=C(CS(=O)(=O)c2ccccc2)[C@@H](OCc2ccccc2)[C@@H]1OCc1ccccc1
inactive: 786-0 26.4 µM | EKVX 27.2 µM | HCC 2998 18.9 µM | HOP-62 19 µM | IGROV-1 17.1 µM | M14 15.7 µM | MDA-MB-231 23.9 µM | MDA-MB-435 26.9 µM | NCI-H460 21 µM | NCI/ADR-RES 20.7 µM | OVCAR-3 12.5 µM | OVCAR-4 20.7 µM | OVCAR-5 27.9 µM | PC-3 25.8 µM | RPMI-8226 11.6 µM | SF-268 29.9 µM | SF-539 19.2 µM | SNB-19 34.3 µM | SNB-75 > 100 µM | UO-31 18.5 µM

OC1=C(c2ccccc2)C2=NCCN2c2ccccc21
inactive: 786-0 42.5 µM | EKVX 62.5 µM | HCC 2998 41.1 µM | HOP-62 31.8 µM | IGROV-1 40.9 µM | M14 57.8 µM | MDA-MB-231 > 100 µM | MDA-MB-435 39.1 µM | NCI-H460 49.9 µM | NCI/ADR-RES 52.6 µM | OVCAR-3 18.2 µM | OVCAR-4 > 100 µM | OVCAR-5 66.1 µM | PC-3 38.1 µM | RPMI-8226 36.4 µM | SF-268 45.9 µM | SF-539 43.8 µM | SNB-19 20 µM | SNB-75 23.1 µM | UO-31 36.9 µM

CC(C)(C)OC(=O)N1CCCC1C(=O)NC(c1ccccc1)c1ccccc1 (stereo not given)
inactive: 786-0 > 100 µM | EKVX > 100 µM | HCC 2998 > 100 µM | HOP-62 > 100 µM | IGROV-1 > 100 µM | M14 > 100 µM | MDA-MB-231 > 100 µM | MDA-MB-435 > 100 µM | NCI-H460 > 100 µM | NCI/ADR-RES > 100 µM | OVCAR-3 > 100 µM | OVCAR-4 > 100 µM | OVCAR-5 > 100 µM | PC-3 > 100 µM | RPMI-8226 > 100 µM | SF-268 > 100 µM | SF-539 > 100 µM | SNB-19 > 100 µM | SNB-75 > 100 µM | UO-31 > 100 µM

COc1ccc(CC2Cc3ccccc3CCN2)cc1OC (stereo not given)
inactive: 786-0 26.3 µM | EKVX 26.2 µM | HCC 2998 > 50 µM | HOP-62 40.5 µM | IGROV-1 23.9 µM | M14 16.2 µM | MDA-MB-231 44.5 µM | MDA-MB-435 > 50 µM | NCI-H460 37.4 µM | NCI/ADR-RES > 50 µM | OVCAR-3 > 50 µM | OVCAR-4 > 50 µM | OVCAR-5 38.2 µM | PC-3 > 50 µM | RPMI-8226 18.3 µM | SF-268 > 50 µM | SF-539 37.8 µM | SNB-19 > 50 µM | SNB-75 31.1 µM | UO-31 11.8 µM

CCN1CCN(c2nc3ccccc3nc2C(=O)c2ccc(OC)c(OC)c2)CC1
inactive: 786-0 10.7 µM | EKVX 19 µM | HCC 2998 2.3 µM | HOP-62 21.4 µM | IGROV-1 16.6 µM | M14 16.2 µM | MDA-MB-231 14.8 µM | MDA-MB-435 25.4 µM | NCI-H460 6.81 µM | NCI/ADR-RES 1.6 µM | OVCAR-3 22.2 µM | OVCAR-4 10 µM | OVCAR-5 41.7 µM | PC-3 32.7 µM | RPMI-8226 10.1 µM | SF-268 19.3 µM | SF-539 1.73 µM | SNB-19 24 µM | SNB-75 12.9 µM | UO-31 13.7 µM

COc1ccc(C(=O)Oc2c(C#N)sc3c2c(=O)n(-c2ccccc2)c(=S)n3-c2ccccc2)cc1
inactive: 786-0 44.1 µM | EKVX 12.9 µM | HCC 2998 27.9 µM | HOP-62 24.7 µM | IGROV-1 19.6 µM | M14 20.3 µM | MDA-MB-231 31.3 µM | MDA-MB-435 22.7 µM | NCI-H460 30.5 µM | NCI/ADR-RES 20.6 µM | OVCAR-3 20.3 µM | OVCAR-4 28.1 µM | OVCAR-5 26.4 µM | PC-3 26.5 µM | RPMI-8226 25.2 µM | SF-268 34.2 µM | SF-539 21.6 µM | SNB-19 33.2 µM | SNB-75 > 100 µM | UO-31 2.12 µM

C[Si](C)(OCCS(=O)(=O)O)C1S(=O)(=O)OCCOS1(=O)=O
inactive: 786-0 36.1 µM | EKVX > 100 µM | HCC 2998 35.5 µM | HOP-62 56.4 µM | IGROV-1 > 100 µM | M14 48.2 µM | MDA-MB-231 > 100 µM | MDA-MB-435 43.5 µM | NCI-H460 31.7 µM | NCI/ADR-RES 45.4 µM | OVCAR-3 > 100 µM | OVCAR-4 > 100 µM | OVCAR-5 > 100 µM | PC-3 93.5 µM | RPMI-8226 > 100 µM | SF-268 24 µM | SF-539 23.9 µM | SNB-19 36.8 µM | SNB-75 20.5 µM | UO-31 58.6 µM

CC1(C)OCC(C2OC3OC(C)(C)OC3C2c2ccccc2)O1 (stereo not given)
inactive: 786-0 58.6 µM | EKVX 49 µM | HCC 2998 > 100 µM | HOP-62 49 µM | IGROV-1 41.1 µM | M14 33.7 µM | MDA-MB-231 55 µM | MDA-MB-435 37.8 µM | NCI-H460 39.8 µM | NCI/ADR-RES 31.1 µM | OVCAR-3 34.4 µM | OVCAR-4 41.4 µM | OVCAR-5 91.6 µM | PC-3 24.3 µM | RPMI-8226 48.8 µM | SF-268 38.4 µM | SF-539 37.5 µM | SNB-19 71.8 µM | SNB-75 50.6 µM | UO-31 44.8 µM
